Among the data in PMC11228983, “Rapid Protein–Ligand Affinity Determination by Photoinduced Hyperpolarized NMR” (Journal of the American Chemical Society, 2024) are Kd values, retold here.

Residues, ends and D or L forms follow the SMILES beside them.

The target in experiment [1] is T1, PDZ2 domain of human tyrosine phosphatase 1E (hPTP1E) (Homo sapiens, UniProt Q12923).
T1 construct: the constructs used for the PDZ2 domain of human tyrosine phosphatase 1E; polyhistidine (N); made in house; host or cells: Escherichia coli BL21 (DE3)
T1 sequence (Q12923 1368-1452 limits assumed): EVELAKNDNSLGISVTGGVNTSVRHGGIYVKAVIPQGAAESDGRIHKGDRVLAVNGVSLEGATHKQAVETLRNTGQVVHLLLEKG
Kind of experiment: 2D [1H,15N]-HSQC chemical shift perturbation titration. Format: binding. The note with it: 30 μM 15N PDZ2, pH 6.8, 298 K. The procedure:
We compared the affinities of the peptides obtained via CIDNP-KD with the state-of-the-art 2D [^1H, ^15N]-HSQC titration experiments measured with 30 μM PDZ2 (Figure S3).
Expression and purification were carried out as in previously reported procedures. In short, expression in Escherichia coli cells (BL21 (DE3)) and purification via Ni-NTA chromatography as the constructs used for the PDZ2 domain of human tyrosine phosphatase 1E and human PIN1 both contained N-terminal polyhistidine tags. Both protein constructs were measured in an NMR buffer consisting of 50 mM NaCl, 20 mM KPO4, and 10% D2O at pH 6.8. For the control [^1H, ^15N]-HSQC experiments, the PDZ2 domain was expressed in ^15N-enriched minimal medium.[34],[43]
All photo-CIDNP and STD-NMR experiments were recorded at 298 K on a Bruker Avance III HD 600 MHz spectrometer equipped with a cryoprobe. The [^15N, ^1H] – HSQC titration experiments of the PDZ2 domain were performed also at 298 K on another Bruker Avance IIII HD 600 MHz spectrometer equipped with a cryoprobe and SampleJet.
Peak picking was performed with the maximal peak picking tool of Mnova software. Plotting, fitting, and data analysis was done in RStudio with the workflow described above. The [^15N, ^1H]-HSQC reference affinities were analyzed with CCPNMR3.1.[62] The backbone assignment was taken from BMRB 34688.
Fig. S3: 2D [15N, 1H]-HSQC titration of peptides to hPDZ2 domain. The 2D [ 15N, 1H]-
HSQC spectra of the titration series in presence of 30 µM hPDZ2 domain and the
corresponding observed chemical shift difference of A74 plotted versus the peptide
(1 picture or pasted object on this page, not shown here)

Experiment [2] addresses T1, PDZ2 domain of human tyrosine phosphatase 1E (hPTP1E). Kind of experiment: CIDNP-KD ligand titration (photo-CIDNP hyperpolarized NMR). In kind it is binding. From the text: For both STD-NMR and CIDNP-KD, there is an initial buildup of the signal at the start of the irradiation. However, the mechanisms underlying it and, thus, the kinetics of the signal buildup are different between the techniques. In STD-NMR, the saturation of L starts to build up as soon as the irradiation of the protein begins because preformed PL complexes can be immediately saturated. However, in CIDNP-KD, the preformed PL complexes are not CIDNP-active. Therefore, a free L must first be hyperpolarized and then bind to P before any signal reduction is observable. Therefore, we will use the AF(ti) corresponding to the steady state in contrast to STD-NMR, where one needs to measure the initial growth of the amplification factor to account for the ligand rebinding effects, which are significant at low ligand-to-protein ratios;[7] there is no need for an initial amplification factor in CIDNP-KD. During the photo-CIDNP process, only 0.1–1% of the ligand becomes hyperpolarized such that even at low ligand-to-protein ratios, the rebinding of L* is not a significant factor. Therefore, one needs to only assess the time to reach a steady-state amplification factor AFss, whose value is measured at a series of ligand concentrations, and then fit eq 5 to determine the proportionality factor α and the dissociation constant KD (Figure 1D,E) [drawing 5] 5 Affinities are obtained with the CIDNP-KD method as follows. The ligand of interest and the photosensitizer are prepared as titration series in the presence and absence of the target protein (Figure 1A) and measured with the Cryolight setup (Figure 1B,[23]), which allows the automatization with an autosampler. The photo-CIDNP signal builds up within 2 s (Figure 1C). It allows us to measure the irradiation time-dependent photo-CIDNP buildup of the ligand NMR signal in the presence and absence of protein in under a minute per sample (Figure S1A). These signal intensities are converted into AF(ti) with eq 4 (Figure S1B), giving an individual titration data point in the corresponding ligand titration curve (Figure S1C). The experiment is repeated at different ligand concentrations to build the titration curve fitted using eq 5, yielding the KD (Figure 1E,F). The entire measurement of all the photo-CIDNP spectra of 7 titration points (14 measurements) takes about 7 min in measurement time, plus the time to exchange the samples with the autosampler (Figure 1D).
Figure 2 presents the CIDNP-KD titration curves for each peptide with 20 μM PDZ2 in (A) and 10 μM PDZ2 in (B to D). The curves were obtained using the workflow described in the introduction for each proton of tryptophan that has sufficient photo-CIDNP signal enhancement and signal reduction upon binding (Figure S2).
Figure 2 Affinity determination of different peptides binding to the hPDZ2 domain by CIDNP-KD within a few minutes. Ligand titration of (A) WSAV, (B) WVSAV, (C) WQVSAV, and (D) WEQVSAV against the human tyrosine phosphatase PDZ2 domain (20 μM for WSAV, 10 μM for others) as described in Figures 1 and S1. The plots contain the titration curves for all protons of the tryptophan residue that undergo signal enhancement through photo-CIDNP and display sufficient quenching upon protein binding. The individual data points are measured with single-scan experiments with laser irradiation durations where t > tss: (A) 1500 ms, (B) 2000 ms, (C) 2000 ms, and (D) 2000 ms.
Expression and purification were carried out as in previously reported procedures. In short, expression in Escherichia coli cells (BL21 (DE3)) and purification via Ni-NTA chromatography as the constructs used for the PDZ2 domain of human tyrosine phosphatase 1E and human PIN1 both contained N-terminal polyhistidine tags. Both protein constructs were measured in an NMR buffer consisting of 50 mM NaCl, 20 mM KPO4, and 10% D2O at pH 6.8. For the control [^1H, ^15N]-HSQC experiments, the PDZ2 domain was expressed in ^15N-enriched minimal medium.[34],[43] […]

Experiment [3] deals with T2, WVSAV.
T2 chain: WVSAV
Description: CIDNP-KD NMR (H2).

For experiment [4], the target named is T3, WQVSAV.
T3 chain: WQVSAV
Description: CIDNP-KD NMR (H2).

For experiment [5], the target named is T4, WEQVSAV.
T4 chain: WEQVSAV
Kind of experiment: CIDNP-KD NMR (H2).

The target in experiment [6] is T4, WEQVSAV. Description: CIDNP-KD NMR (H6).
In experiment [7] the target is T5, ENEQVSAV (RA-GEF2) (Homo sapiens).
T5 chain: ENEQVSAV
Description: competition CIDNP-KD NMR (H4).

For experiment [8], the target named is T2, WVSAV. Kind of experiment: [1H,15N]-HSQC titration (A74).
For experiment [9], the target named is T6, QVSAV (RA-GEF2) (Homo sapiens).
T6 chain: QVSAV
Description: [1H,15N]-HSQC titration (A74).

For experiment [10], the target named is T3, WQVSAV. Kind of experiment: [1H,15N]-HSQC titration (A74).
Experiment [11] deals with T5, ENEQVSAV (RA-GEF2). Description: [1H,15N]-HSQC titration (A74).
The target in experiment [12] is T4, WEQVSAV. Kind of experiment: [1H,15N]-HSQC titration (A74).
Experiment [13] concerns the target T6, QVSAV (RA-GEF2). Description: competition CIDNP-KD NMR (Hβ).
The target in experiment [14] is T5, ENEQVSAV (RA-GEF2). Description: competition CIDNP-KD NMR (Hβ).
The target in experiment [15] is T2, WVSAV. Kind of experiment: CIDNP-KD NMR (H4).
Experiment [16] has as its target T3, WQVSAV. Description: CIDNP-KD NMR (H4).
Experiment [17] concerns the target T2, WVSAV. Kind of experiment: CIDNP-KD NMR (Hβ).
Experiment [18] deals with T3, WQVSAV. Description: CIDNP-KD NMR (Hβ).
Experiment [19] addresses T4, WEQVSAV. Kind of experiment: CIDNP-KD NMR (Hβ).
The mark [20] stands for this setting: 15N–1H moiety of A74, read-out: [1H,15N]-HSQC–CSP KD, NH of A74.
The mark [21] stands for this setting: range over residues, read-out: [1H,15N]-HSQC–CSP KD range of all residues showing chemical shift perturbation.
The mark [22] stands for this setting: range over Hβ/H2/H4/H6 fits, read-out: CIDNP-KD affinity, range over the observed tryptophan protons.
Where [23] appears, read: tryptophan H2 signal, 20 μM PDZ2 for WSAV, 10 μM for others, pH 6.8, 298 K, H2 overlaps H6 for WVSAV and WQVSAV, read-out: CIDNP-KD, H2.
Setting [24] is: tryptophan H4 signal, 20 μM PDZ2 for WSAV, 10 μM for others, pH 6.8, 298 K, read-out: CIDNP-KD, H4.
Where [25] appears, read: tryptophan H6 signal, 20 μM PDZ2 for WSAV, 10 μM for others, pH 6.8, 298 K, read-out: CIDNP-KD, H6.
[26] abbreviates: tryptophan Hβ signal, 20 μM PDZ2 for WSAV, 10 μM for others, 25 μM fluorescein, 450 nm, 50 mM NaCl, 20 mM KPO4, 10% D2O, pH 6.8, 298 K, single-scan, steady state, fit ± error, read-out: CIDNP-KD, Hβ.

Turning to `CC(C)[C@H](NC(=O)[C@H](C)NC(=O)[C@H](CO)NC(=O)[C@@H](NC(=O)[C@H](CCC(N)=O)NC(=O)[C@H](CCC(=O)O)NC(=O)[C@@H](N)Cc1c[nH]c2ccccc12)C(C)C)C(=O)O` [WEQVSAV] (H-WEQVSAV-OH), the Kd is 16 ± 5 µM in experiment [1] (setting [20]); 10 to 70 µM in experiment [1] (setting [21]); 55 to 82 µM in experiment [2] (setting [22]); 63 ± 28 µM in experiment [2] (setting [23]); 63 ± 16 µM in experiment [2] (setting [24]); 55 ± 17 µM in experiment [2] (setting [25]). For the same molecule, the Kd in experiment [2] (setting [26]) stood at 82 ± 33 µM.
As for `CC(C)[C@H](NC(=O)[C@H](C)NC(=O)[C@H](CO)NC(=O)[C@@H](NC(=O)[C@H](CCC(N)=O)NC(=O)[C@@H](N)Cc1c[nH]c2ccccc12)C(C)C)C(=O)O` [WQVSAV] (H-WQVSAV-OH), the Kd in experiment [1] (setting [20]) was 68 ± 11 µM; in experiment [1] (setting [21]), 20 to 280 µM; in experiment [2] (setting [22]), 19 to 200 µM; in experiment [2] (setting [23]) it was 74 ± 14 µM; in [2] (setting [24]) it was 230 ± 30 µM; in [2] (setting [26]) it was 27 ± 16 µM.
For the molecule `CC(C)[C@H](NC(=O)[C@H](C)NC(=O)[C@H](CO)NC(=O)[C@@H](N)Cc1c[nH]c2ccccc12)C(=O)O` [WSAV] (H-WSAV-OH), the Kd in experiment [1] (setting [20]) is 1320 ± 160 µM; in experiment [1] (setting [21]) it was 200 to 4000 µM; in experiment [2] (setting [22]) it was 3100 to 3300 µM; in experiment [2] (setting [23]) it was 3300 ± 2300 µM; in experiment [2] (setting [24]) it was 3100 ± 1500 µM; in experiment [2] (setting [25]), 3100 ± 3200 µM.
For the molecule `CC(C)[C@H](NC(=O)[C@H](C)NC(=O)[C@H](CO)NC(=O)[C@@H](NC(=O)[C@@H](N)Cc1c[nH]c2ccccc12)C(C)C)C(=O)O` [WVSAV] (H-WVSAV-OH), the Kd in experiment [1] (setting [20]) was 108 ± 10 µM; in [1] (setting [21]) it was 50 to 400 µM; in [2] (setting [22]), 80 to 330 µM; in experiment [2] (setting [23]), 80 ± 60 µM; in experiment [2] (setting [24]), 330 ± 80 µM; in experiment [2] (setting [26]), 170 ± 40 µM.

B1: PDZ2 domain of human tyrosine phosphatase 1E (hPTP1E) PDZ2 (protein)
chain: DIFEVELAKNDNSLGISVTGGVNTSVRHGGIYVKAVIPQGAAESDGRIHKGDRVLAVNGVSLEGATHKQAVETLRNTGQVVHLLLEKGQSP
Turning to B1, the Kd in [3] came out at 80 µM; in experiment [4], 74 µM; in experiment [5], 63 µM; in experiment [6] it was 55 µM; in experiment [7], 91 µM; in [8], 108 µM. Further, the Kd came to 155 µM in experiment [9]; 68 µM in experiment [10]; 17 µM in experiment [11]; 16 µM in [12]; 580 µM in [13]; 35 µM in experiment [14]. Further, the Kd in [15] came to 330 µM; in experiment [16], 230 µM; in experiment [17] it was 170 µM; in [18], 27 µM; in experiment [19], 82 µM.
